What was measured:
Type in all cases: physicochemical
[1] = Solubility in indicated solvent; details: % wt soluble in triglyme
Excerpt: A compound with greater solubility allows for a formulation or material with a greater concentration of coloured molecule to be incorporated into a composition. This may allow for increasing the contrast ratio for a compound with a lesser absorbance at PSS. Inclusion of a solubilizing group in a compound according to various embodiments of the invention may increase solubility. Examples of solubilizing groups may include alkoxy or siloxy groups.

[2] = PSS and light composition (sunlight vs interior lighting); details: 2×10^−4 M in triglyme
Excerpt: The difference in PSS as a function of light source type was investigated. The light sources included direct sunlight (filtered through window glass) and interior lighting. Irradiance information and spectral profiles of light sources are provided in Table 9 and FIG. 2, respectively. Six compounds (2×10^−4 M solutions of S096, S094, S079, S044, S042 and S035 in triglyme) were investigated and compared for performance on the basis of maximum difference in darkening ability between sunlight and interior lighting conditions. Darkening ability is indicated by the absorbance at λmax in the visible light spectrum for the ring-closed isomer of the chromophore.
Samples were then moved away from the window (300 cm from window, with interior lighting on) to alter the light composition by reducing the sunlight component. […] Finally, samples were again irradiated to the darkest state under sunlight conditions (20 cm from window) and then subjected to interior lighting conditions only (sunlight blocked out with blinds), allowing the samples to fade to a lower PSS specific to these lighting conditions as shown in FIG. 3.
Sample darkening times were less than one minute, while sample photofading times ranged as high as 20 minutes. […]

[3] = Absorbance at photostationary state (PSS) under simulated sunlight or 365 nm light; set-up: λ max: unit not given here; details: for Absorbance at PSS, 365 nm: 365 nm light source; for Absorbance at PSS, 365 nm / Absorbance at PSS, full / Absorbance at PSS, +UV / λ max: 2.0×10^−5 M in triglyme; for sensitivity index: ratio of PSS under 365 nm light to PSS under full spectrum light (without UV blocking film); for Absorbance at PSS, full: simulated sunlight (QSUN solar simulator), no UV blocking film; for Absorbance at PSS, +UV: simulated sunlight with UV blocking film (cutoff 370 nm); for λ max: wavelength of maximum absorbance in the visible range, ring-closed isoform
How it was run: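 Compounds at 2.0×10^−5 M in triglyme, photofaded with visible light, then irradiated with simulated sunlight (xenon arc) or 365 nm light until the UV/Vis spectrum stabilized. Also irradiated through a UV-blocking film (370 nm cutoff); sensitivity index is PSS under 365 nm divided by PSS under full spectrum.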

With `CC(C)(C)c1ccc(-c2cc(C3=C(c4cc(-c5ccc(C(C)(C)C)cc5)sc4-c4ccc(C(C)(C)C)cc4)C(F)(F)C(F)(F)C3(F)F)c(-c3ccc(C(C)(C)C)cc3)s2)cc1` [S042] the Solubility [1] was 0.5 % wt, the “change in degree of coloration in response to variation in the light source” value [2] was “greatest change in degree of coloration” and the “Absorbance at PSS, 365 nm” value [3] was 0.233. The sensitivity index [3] was 2.40, the “Absorbance at PSS, full” value [3] was 0.097 and the “Absorbance at PSS, +UV” value [3] was 0.04. For the same compound, the λ max [3] was 612.
In the case of `COCCOCCOCCOC(C)(C)c1ccc(-c2cc(C3=C(c4cc(-c5ccc(C(C)(C)OCCOCCOCCOC)cc5)sc4-c4ccc(C(C)(C)C)cc4)C(F)(F)C(F)(F)C3(F)F)c(-c3ccc(C(C)(C)C)cc3)s2)cc1` [S068, 12,12′-((4,4′-(perfluorocyclopent-1-ene-1,2-diyl)bis(5-(4-(tert-butyl)phenyl)thiophene-4,2-diyl))bis(4,1-phenylene))bis(12-methyl-2,5,8,11-tetraoxatridecane)], the Solubility [1] is reported as over 20 % wt, the “Absorbance at PSS, 365 nm” value [3] is reported as 0.239 and the sensitivity index [3] is reported as 2.15. For the same compound, the “Absorbance at PSS, full” value [3] was 0.111, the “Absorbance at PSS, +UV” value [3] was 0.051 and the λ max [3] was 615.
In the case of `c1ccc(-c2nc(-c3cc(-c4cccs4)sc3-c3cccs3)c(-c3cc(-c4cccs4)sc3-c3cccs3)s2)cc1` [S075], the Solubility [1] is reported as 1 % wt, the “Absorbance at PSS, 365 nm” value [3] is reported as 0.302 and the sensitivity index [3] is reported as 3.82. The “Absorbance at PSS, full” value [3] was 0.079, the “Absorbance at PSS, +UV” value [3] was 0.031 and the λ max [3] was 670.
For `CCCCCCCCc1ccc(-c2oc3ccccc3c2C2=C(c3c(-c4ccc(CCCCCCCC)cc4)oc4ccccc34)C(F)(F)C(F)(F)C2(F)F)cc1` [S079, 1,2-bis(2-(4-n-octylphenyl)-1-benzofuran-3-yl)perfluorocyclopentene], the Solubility [1] was 8-11 % wt, the “Absorbance at PSS, 365 nm” value [3] was 0.17 and the sensitivity index [3] was 7.39. The “Absorbance at PSS, full” value [3] was 0.023, the “Absorbance at PSS, +UV” value [3] was 0.008 and the λ max [3] was 490.
In the case of `CC(C)CCOc1ccc(-c2cc(C3=C(c4cc(-c5ccc(OCCC(C)C)cc5)sc4-c4ccc(OCCC(C)C)cc4)C(F)(F)C(F)(F)C3(F)F)c(-c3ccc(OCCC(C)C)cc3)s2)cc1` [S094, 3,3′-(perfluorocyclopent-1-ene-1,2-diyl)bis(2,5-bis(4-(isopentyloxy)phenyl)thiophene)], the “change in degree of coloration in response to variation in the light source” value [2] is reported as “greatest change in degree of coloration”, the “Absorbance at PSS, 365 nm” value [3] is reported as 0.311 and the sensitivity index [3] is reported as 1.74. For the same compound, the “Absorbance at PSS, full” value [3] was 0.179, the “Absorbance at PSS, +UV” value [3] was 0.103 and the λ max [3] was 625.
For `COc1cccc(-c2cc(C3=C(c4cc(-c5cccc(OC)c5)sc4-c4cccc(OC)c4)C(F)(F)C(F)(F)C3(F)F)c(-c3cccc(OC)c3)s2)c1` [S096, 3,3′-(perfluorocyclopent-1-ene-1,2-diyl)bis(2,5-bis(3-methoxyphenyl)thiophene)], the Solubility [1] was 15 % wt, the “Absorbance at PSS, 365 nm” value [3] was 0.183 and the sensitivity index [3] was 4.07. The “Absorbance at PSS, full” value [3] was 0.045, the “Absorbance at PSS, +UV” value [3] was 0.014 and the λ max [3] was 609.
For `COCCOCCOCCOc1ccc(-c2sc(-c3ccc(C(C)(C)C)s3)cc2C2=C(c3cc(-c4ccc(C(C)(C)C)s4)sc3-c3ccc(OCCOCCOCCOC)cc3)C(F)(F)C(F)(F)C2(F)F)cc1` [S108], the Solubility [1] was over 25 % wt, the “Absorbance at PSS, 365 nm” value [3] was 0.374 and the sensitivity index [3] was 1.28. For the same compound, the “Absorbance at PSS, full” value [3] was 0.292, the “Absorbance at PSS, +UV” value [3] was 0.215 and the λ max [3] was 645.
For `CCOCCOCCOCCOc1ccc(-c2sc(-c3ccc(C(C)(C)C)s3)cc2C2=C(c3cc(-c4ccc(C(C)(C)C)s4)sc3-c3ccc(OCCOCCOCCOCC)cc3)C(F)(F)C(F)(F)C2(F)F)cc1` [S109, 4,4″-(perfluorocyclopent-1-ene-1,2-diyl)bis(5′-(tert-butyl)-5-(4-(2-(2-(2-ethoxyethoxy)ethoxy)ethoxy)phenyl)-2,2′-bithiophene)], the Solubility [1] was over 25 % wt, the “Absorbance at PSS, 365 nm” value [3] was 0.367 and the sensitivity index [3] was 1.24. For the same compound, the “Absorbance at PSS, full” value [3] was 0.296, the “Absorbance at PSS, +UV” value [3] was 0.217 and the λ max [3] was 645.
In the case of `CCOCCOCCOCCOC(CC)(CC)c1ccc(-c2sc(-c3ccc(C(C)(C)C)s3)cc2C2=C(c3cc(-c4ccc(C(C)(C)C)s4)sc3-c3ccc(C(CC)(CC)OCCOCCOCCOCC)s3)C(F)(F)C(F)(F)C2(F)F)s1` [S128, 13,13′-(3′,3″″-(perfluorocyclopent-1-ene-1,2-diyl)bis(5″-(tert-butyl)-[2,2′: 5′,2″-terthiophene]-5,3′-diyl))bis(13-ethyl-3,6,9,12-tetraoxapentadecane)], the Solubility [1] is reported as over 25 % wt, the “Absorbance at PSS, 365 nm” value [3] is reported as 0.403 and the sensitivity index [3] is reported as 1.53. For the same compound, the “Absorbance at PSS, full” value [3] was 0.264, the “Absorbance at PSS, +UV” value [3] was 0.224 and the λ max [3] was 648.
In the case of `COCCC[Si](CCCOC)(CCCOC)c1ccc(-c2cc(C3=C(c4cc(-c5ccc([Si](CCCOC)(CCCOC)CCCOC)s5)sc4-c4ccc([Si](CCCOC)(CCCOC)CCCOC)s4)C(F)(F)C(F)(F)C3(F)F)c(-c3ccc([Si](CCCOC)(CCCOC)CCCOC)s3)s2)s1` [S138], the Solubility [1] is reported as over 20 % wt, the “Absorbance at PSS, 365 nm” value [3] is reported as 0.337 and the sensitivity index [3] is reported as 1.10. The “Absorbance at PSS, full” value [3] was 0.306, the “Absorbance at PSS, +UV” value [3] was 0.262 and the λ max [3] was 650.
For `COCCC[Si](CCCOC)(CCCOC)c1ccc(-c2sc(-c3ccc(C(C)(C)C)s3)cc2C2=C(c3cc(-c4ccc(C(C)(C)C)s4)sc3-c3ccc([Si](CCCOC)(CCCOC)CCCOC)s3)C(F)(F)C(F)(F)C2(F)F)s1` [S158], the Solubility [1] was over 20 % wt, the “Absorbance at PSS, 365 nm” value [3] was 0.394 and the sensitivity index [3] was 1.15. The “Absorbance at PSS, full” value [3] was 0.342, the “Absorbance at PSS, +UV” value [3] was 0.291 and the λ max [3] was 650.

Reference: patent publication US10072023B2, “Diarylethene compounds and uses thereof” (SWITCH MATERIALS, INC., priority 2011, dated 2018)
